Measured values: US20060058227A1, “Hedgehog-related prophylaxis, therapy and diagnosis of gi tract carcinogenesis” (Academisch Ziekenhulis bij de Universiteit van Amsterdam, priority 2002, published 2006)

What was measured:
[1] = test system: colonic epithelial cell differentiation; test: Cyclopamine treatment of rats: markers of colonic epithelial differentiation (Western blot, H&E, immunohistochemistry); format: in vivo, rat; conditions: for carbonic anhydrase (CA) IV expression in enterocytes / intestinal trefoil factor expression in the enterocytes / Villin distribution in enterocytes: rat colon; for carbonic anhydrase (CA) IV expression in enterocytes: CA IV immunohistochemistry, cyclopamine treated vs control (FIG. 11G,H); for intestinal trefoil factor expression in the enterocytes: ITF immunohistochemistry, cyclopamine treated vs control (FIG. 11I-L); for Villin distribution in enterocytes: Villin immunohistochemistry, cyclopamine treated vs control (FIG. 11E,F); for enterocyte maturation / terminal differentiation of enterocytes in the colon: H&E and immunohistochemistry
Experimental: (§1) Formalin fixed paraffin embedded human biopsy and resection specimens of uninflamed colonic mucosa, sporadic adenomas, sporadic carcinomas and adenomas from patients with FAP were obtained from the archives of the pathology department of the Academic Medical Center following institutional standards for human subject research. Immunohistochemistry was performed on 4μ sections using a three-step diaminobenzidine (DAB) detection method with antigen retrieval as described in detail previously (van den Brink et al., 2000). For BrdU visualisation, sections were incubated in 2N HCl at 37° C. for 60 minutes after deparaffinization and then washed in boric acid pH 8.5. Sections were counterstained with Mayer's hematoxylin, except when stained for HNF3β, engrailed-1 or β-catenin to allow optimal visualisation of nuclear staining. BrdU positive nuclei were scored as described (van den Brink et al., 2001).
(§2) The distal half of the rat colon was dissected along the longitudinal axis and one half was homogenised and processed for Western blotting as described below. Murine stomach and small intestine were homogenised in lysis buffer (300 mmol/L NaCl, 30 mmol/L Tris, 2 mmol/L MgCl2, 2 mmol/L CaCl2, 1% Triton X-100, pH 7.4, supplemented with 1 tablet of protease inhibitor [Roche] per 50 ml). Protein concentration was measured using the Bradford method. Lysates were diluted 1:3 in protein sample buffer (125 mmol/L Tris/HCl, pH 6.8; 4% sodium dodecyl sulfate; 2% β-mercaptoethanol; 20% glycerol, 1 mg bromophenol blue), and 100-200 μof homogenate was loaded per lane on a sodium dodecyl sulfate-pol-yacrylamide gel electrophoresis gel. After protein separation, the proteins were blotted on to a PVDF membrane (Millipore, Bedford, Mass.). Membranes were blocked with 2% protifar (Nutricia, Zoetermeer, The Netherlands) in phosphate-buffered saline (PBS), supplemented with 0.1% Tween-20 for 1 hour at room temperature. After a brief wash in washing buffer (0.2% protifar; 0.1% Tween-20), membranes were incubated overnight at 4° C. with antibody diluted in washing buffer at the indicated concentration. The next day, membranes were washed 3 times for 5 minutes each and subsequently incubated with a secondary horseradish peroxidase tHRP)-conjugated antibody in a 1:2000 dilution. After enhanced chemoluminescence using Lumilight^+ substrate (Roche, Mannheim, Germany), antibody binding was visualised using a Lumi-Imager (Boehringer Mannheim, Mannheim, Germany).
(§3) In addition to the mice described above, 8-week-old female Wistar rats (n=7) were treated with daily intraperitoneal injections of 1 mg/kg of the Hedgehog inhibitor cyclopamine complexed with 2-hydroxypropyl-β-cyclodextrin (HBC; Sigma) as described (van den Brink et al., 2001). Control rats (n=7) received solvent only. After 14 days, rats were given a single intraperitoneal injection of 150 mg/kg BrdU one hour before being killed.
(§4) The distal half of the rat colon was dissected along the longitudinal axis and one half was homogenised and processed for Western blotting as described (van den Brink et al., 2001). To study Shh expression in the human GI tract we used specimens from the archives of the department of pathology of the Academic Medical Center and the Department of Pathology of the Massachusetts General Hospital and Brigham and Women's Hospital. We examined tissue with normal histology of at least 6 different patients to investigate each site along the normal GI tract for Shh expression. Other specimens included: tissue from 16 different patients with intestinal metaplasia of the stomach, 13 resection specimens of Meckel's diverticulum and 6 resection specimens of patients with Barrett's esophagus.

Hh signalling = test: Cyclopamine treatment of rats: Western blots of putative Hedgehog regulated proteins in colonic homogenates; format: in vivo; conditions: adult rat colon homogenate, Western blot
Experimental: as §2, §3, §4

HT-29 cells = test: Butyrate induced differentiation of HT-29 cells, with or without cyclopamine (Western blot); format: cell-based; conditions: HT-29 cultures, 2 μ/ml cyclopamine plus butyrate, 24 hours, Western blot (FIGS. 13a,b)
Experimental: as §2
HT 29 colon cancer cell lines were cultured according to routine procedures in the presence of 10% fetal calf serum (GIBCO). Recombinant Shh (R&D systems) was used at the indicated concentrations; Butyrate (Sigma) was used at a 5 mM concentration.

[2] = test system: precursor cell proliferation in the adult colon; test: Cyclopamine treatment of rats: markers of proliferation in the adult colon (Western blot, BrdU labelling); format: in vivo, rat
Experimental: as §1, §2
as §3, with “After 14 days, rats were given a single intraperitoneal injection of 150 mg/kg BrdU one hour before being killed.” left out

CC1=C2C[C@H]3[C@@H](CC=C4C[C@@H](O)CC[C@@]43C)[C@@H]2CC[C@]12O[C@@H]1C[C@H](C)CN[C@H]1[C@H]2C [cyclopamine]
Intestinal trefoil factor (ITF/TFF3) expression, goblet cell lineage marker ([1]; adult rat colon homogenate, Western blot, cyclopamine 1 mg/kg i.p. daily for 14 days (FIG. 4, P=0.008)): strong induction
expression of Villin, marker of enterocyte differentiation ([1]; adult rat colon homogenate, Western blot, cyclopamine 1 mg/kg i.p. daily for 14 days (FIG. 4, P=0.02)): reduced
carbonic anhydrase (CA) IV expression in enterocytes [1]: loss
carbonic anhydrase (CA) IV expression in enterocytes ([1]; listed as Cyclopamine): Loss
intestinal trefoil factor expression in the enterocytes [1]: induction
intestinal trefoil factor expression in the enterocytes ([1]; listed as Cyclopamine): strong immunoreactivity
Villin distribution in enterocytes [1]: villin-redistribution
Villin distribution in enterocytes ([1]; listed as Cyclopamine): apical staining is diminished and cytoplasmic staining enhanced
enterocyte maturation / terminal differentiation of enterocytes in the colon ([1]; rat distal colon, cyclopamine treated vs control (FIG. 11)): inhibited
enterocyte maturation / terminal differentiation of enterocytes in the colon ([1]; rat distal colon, cyclopamine treated vs control (FIG. 11), listed as Cyclopamine): disturbs
histoarchitecture of the colon ([1]; rat distal colon, H&E, cyclopamine treated vs control (FIG. 11)): dramatic changes
levels of BMP4 (Hh signalling; cyclopamine 1 mg/kg i.p. daily for 14 days vs solvent controls (FIG. 3, P=0.0001)): markedly induced
HNF3β protein level (Hh signalling; cyclopamine 1 mg/kg i.p. daily for 14 days vs solvent controls (FIG. 3, P=0.001)): dramatically upregulated
engrailed-1 protein level (Hh signalling; cyclopamine 1 mg/kg i.p. daily for 14 days vs solvent controls (FIG. 3, P=0.002)): dramatically upregulated
GATA-6 protein level (Hh signalling; cyclopamine 1 mg/kg i.p. daily for 14 days vs solvent controls (FIG. 3, P=0.005)): significantly downregulated
Ihh expression under Hh inhibition (Hh signalling; cyclopamine 1 mg/kg i.p. daily for 14 days vs solvent controls (FIG. 3, P=0.08)): not necessary for maintenance of its own expression
expression levels of BMP-2 (Hh signalling; cyclopamine 1 mg/kg i.p. daily for 14 days vs solvent controls (FIG. 3, P=0.25)): no effect
butyrate mediated induction of E-cadherin (HT-29 cells): significantly reduced
butyrate mediated induction of Villin (HT-29 cells): significantly reduced
butyrate mediated induction of cip-1 (HT-29 cells): significantly reduced
expression of PCNA ([2]; adult rat colon homogenate, Western blot, cyclopamine 1 mg/kg i.p. daily for 14 days (FIG. 4, P<0.0001)): increased
expression of cyclin D1 ([2]; adult rat colon homogenate, Western blot, cyclopamine 1 mg/kg i.p. daily for 14 days (FIG. 4, P=0.01)): increased
mitogenesis (PCNA, cyclin D1, BrdU labelled epithelial precursor cells) ([2]; adult rat colon, cyclopamine treated vs control (FIG. 12)): enhanced
incorporation of 5-bromo-2′-deoxyuridine (BrdU labelled cells per crypt) ([2]; adult rat colon, cyclopamine 1 mg/kg i.p. daily for 14 days, BrdU 150 mg/kg one hour before killing (FIG. 4, P=0.036)): increased
